Consider 22 compounds from patent US7553966B2, “Glucocorticoid mimetics, methods of making them, pharmaceutical compositions, and uses thereof” (Boehringer Ingelheim Pharmaceuticals, Inc., priority 2002, dated 2009).

One experiment deals with glucocorticoid receptor. Briefly: Glucocorticoid Receptor Cell Assays (agonist activity in one or more of the above assays). In kind it is cell-based. The conditions noted are these: qualitative statement; assay not specified.
Experiment [1] deals with T1, human glucocorticoid receptor (GR) complex (Homo sapiens, UniProt P04150).
T1 construct: made in house; host or cells: insect expression system (baculovirus lysate)
T1 sequence (P04150 1-777): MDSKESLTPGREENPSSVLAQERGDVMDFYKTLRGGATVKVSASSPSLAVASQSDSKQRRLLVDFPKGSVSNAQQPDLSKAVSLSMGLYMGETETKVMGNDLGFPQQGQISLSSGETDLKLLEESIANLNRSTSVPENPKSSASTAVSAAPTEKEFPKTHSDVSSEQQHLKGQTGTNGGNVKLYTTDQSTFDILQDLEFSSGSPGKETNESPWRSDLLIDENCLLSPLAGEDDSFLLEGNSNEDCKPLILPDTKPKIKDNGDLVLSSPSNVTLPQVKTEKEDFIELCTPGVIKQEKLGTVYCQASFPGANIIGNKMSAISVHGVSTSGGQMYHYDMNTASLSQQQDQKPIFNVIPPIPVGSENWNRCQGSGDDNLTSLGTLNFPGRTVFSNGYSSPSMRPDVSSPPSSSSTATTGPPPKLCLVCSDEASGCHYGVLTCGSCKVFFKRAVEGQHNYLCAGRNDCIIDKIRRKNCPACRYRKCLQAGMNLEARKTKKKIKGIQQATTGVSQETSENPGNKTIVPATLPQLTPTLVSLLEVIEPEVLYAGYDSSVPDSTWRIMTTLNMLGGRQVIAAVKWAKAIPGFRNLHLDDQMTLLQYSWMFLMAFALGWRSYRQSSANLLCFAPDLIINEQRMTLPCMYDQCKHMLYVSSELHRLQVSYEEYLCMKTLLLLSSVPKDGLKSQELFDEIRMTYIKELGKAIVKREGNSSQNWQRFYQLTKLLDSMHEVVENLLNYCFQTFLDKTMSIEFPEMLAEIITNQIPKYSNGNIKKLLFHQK
The experiment is described as follows: Glucocorticoid Receptor Competitive Binding Assay (fluorescence polarization, TAMRA-labeled dexamethasone probe). Particulars: qualitative statement; competition with TAMRA-labeled dexamethasone. Summed up:
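Competition with TAMRA-dexamethasone for a human GR complex expressed in insect cells, read by fluorescence polarization. Buffer was 10 mM TES, 50 mM KCl, 20 mM Na2MoO4, 1.5 mM EDTA, 0.04% CHAPS, 10% glycerol, 1 mM DTT, pH 7.4.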

`COc1ccc(F)cc1C(C)(C)CC(O)(Cc1cc(Cl)nc(Cl)c1)C(F)(F)F` (centres unmarked) [2-(2,6-Dichloropyridin-4-ylmethyl)-1,1,1-trifluoro-4-(5-fluoro-2-methoxyphenyl)-4-methylpentan-2-ol]: the “activity as agonists of the glucocorticoid receptor function in one or more of the above assays” value (from here on “activity as agonists”) in the experiment with glucocorticoid receptor is reported as “potent agonists”. Besides, the “activity in the GR binding assay” value in experiment [1] is given as “potent activity”.
As to `CC(C)(CC(O)(Cc1cc2cc(C#N)ccc2[nH]1)C(F)(F)F)c1ccccc1` (centres unmarked) [2-(2-Hydroxy-4-methyl-4-phenyl-2-trifluoromethylpentyl)-1H-indole-5-carbonitrile], the “activity as agonists” value with glucocorticoid receptor is on record as “potent agonists”. Further, the “activity in the GR binding assay” value in experiment [1] is recorded as “potent activity”.
Regarding `CC(C)(CC(O)(Cc1ccnc2ccccc12)C(F)(F)F)c1ccccc1O` (centres unmarked) [2-(4,4,4-Trifluoro-3-hydroxy-1,1-dimethyl-3-quinolin-4-ylmethylbutyl)phenol], the “activity as agonists” value with glucocorticoid receptor is “potent agonists”. Besides, in experiment [1], the “activity in the GR binding assay” value is given as “potent activity”.
On to `COc1ccc(F)cc1C(C)(C)CC(O)(Cc1cc2ccncc2[nH]1)C1CC1` (centres unmarked) [2-Cyclopropyl-4-(5-fluoro-2-methoxyphenyl)-4-methyl-1-(1H-pyrrolo[2,3-c]pyridin-2-yl)pentan-2-ol], for which the “activity as agonists” value in the experiment on glucocorticoid receptor is given as “agonists”. In addition, the “activity in the GR binding assay” value in experiment [1] was “potent activity”.
In the same order, the values of `COc1cccc(C(C)(C)CC(O)(Cc2cc3c(C)cc(C#N)cc3[nH]2)C(F)(F)F)c1` (centres unmarked) [2-[2-Hydroxy-4-(3-methoxyphenyl)-4-methyl-2-trifluoromethylpentyl]-4-methyl-1H-indole-6-carbonitrile] are “potent agonists” and “potent activity”.
Take `Cc1cc(C)c2[nH]c(CC(O)(CC(C)(C)c3cc(F)ccc3O)C(F)(F)F)nc2c1` (centres unmarked) [2-[3-(5,7-Dimethyl-1H-benzoimidazol-2-ylmethyl)-4,4,4-trifluoro-3-hydroxy-1,1-dimethylbutyl]-4-fluorophenol]: the “activity as agonists” value in the experiment with glucocorticoid receptor is “potent agonists”. Also, in experiment [1], the “activity in the GR binding assay” value was “potent activity”.
As to `Cc1cc(C#N)cc2[nH]c(CC(O)(CC(C)(C)c3cccc4c3OCC4)C(F)(F)F)cc12` (centres unmarked) [2-[4-(2,3-Dihydrobenzofuran-7-yl)-2-hydroxy-4-methyl-2-trifluoromethylpentyl]-4-methyl-1H-indole-6-carbonitrile], in the experiment on glucocorticoid receptor, the “activity as agonists” value was “potent agonists”. Besides, the “activity in the GR binding assay” value in experiment [1] is given as “potent activity”.
Consider `Cc1cc(C#N)cc2[nH]c(CC(O)(CC(C)(C)c3cccc(F)c3)C(F)(F)F)cc12` (centres unmarked) [2-[4-(3-Fluorophenyl)-2-hydroxy-4-methyl-2-trifluoromethylpentyl]-4-methyl-1H-indole-6-carbonitrile], for which, in the experiment with glucocorticoid receptor, the “activity as agonists” value is “potent agonists”. In addition, the “activity in the GR binding assay” value in experiment [1] was “potent activity”.
For `COc1cc(F)ccc1C(C)(C)CC(O)(Cc1[nH]c2ccccc2c1C#N)C(F)(F)F` (centres unmarked) [2-[4-(4-Fluoro-2-methoxyphenyl)-2-hydroxy-4-methyl-2-trifluoromethyl-pentyl]-1H-indole-3-carbonitrile] the same measures were “potent agonists” and “potent activity”.
For `COc1cc(F)ccc1C(C)(C)CC(O)(Cc1cc2cc(C#N)ccc2[nH]1)C(F)(F)F` (centres unmarked) [2-[4-(4-Fluoro-2-methoxyphenyl)-2-hydroxy-4-methyl-2-trifluoromethylpentyl]-1H-indole-5-carbonitrile] the same measures were “potent agonists” and “potent activity”.
Take `CC(C)(CC(O)(Cc1cc2cc(C#N)ccc2[nH]1)C(F)(F)F)c1ccc(F)cc1` (centres unmarked) [2-[4-(4-Fluorophenyl)-2-hydroxy-4-methyl-2-trifluoromethylpentyl]-1H-indole-5-carbonitrile]: in the experiment with glucocorticoid receptor, the “activity as agonists” value is reported as “potent agonists”. In addition, the “activity in the GR binding assay” value in experiment [1] is recorded as “potent activity”.
With `Cc1cc(C#N)cc2[nH]c(CC(O)(CC(C)(C)c3ccc(F)cc3)C(F)(F)F)cc12` (centres unmarked) [2-[4-(4-Fluorophenyl)-2-hydroxy-4-methyl-2-trifluoromethylpentyl]-4-methyl-1H-indole-6-carbonitrile], in the experiment on glucocorticoid receptor, the “activity as agonists” value is listed as “potent agonists”. In addition, the “activity in the GR binding assay” value in experiment [1] is on record as “potent activity”.
As for `CC(C)(CC(O)(Cc1[nH]c2ccccc2c1C#N)C(F)(F)F)c1cc(Br)cc2c1OCC2` (centres unmarked) [2-[4-(5-Bromo-2,3-dihydrobenzofuran-7-yl)-2-hydroxy-4-methyl-2-trifluoromethylpentyl]-1H-indole-3-carbonitrile], in the experiment with glucocorticoid receptor, the “activity as agonists” value is reported as “potent agonists”. Besides, the “activity in the GR binding assay” value in experiment [1] is reported as “potent activity”.
As for `CC(C)(CC(O)(Cc1[nH]c2ccccc2c1C#N)C(F)(F)F)c1cc(F)cc2c1OCC2` (centres unmarked) [2-[4-(5-Fluoro-2,3-dihydrobenzofuran-7-yl)-2-hydroxy-4-methyl-2-trifluoromethylpentyl]-1H-indole-3-carbonitrile], in the experiment on glucocorticoid receptor, the “activity as agonists” value is reported as “potent agonists”. In addition, the “activity in the GR binding assay” value in experiment [1] was “potent activity”.
In the same order, the values of `Cc1cc(C#N)cc2[nH]c(CC(O)(CC(C)(C)c3cc(F)ccc3O)C(F)(F)F)cc12` (centres unmarked) [2-[4-(5-Fluoro-2-hydroxyphenyl)-2-hydroxy-4-methyl-2-trifluoromethylpentyl]-4-methyl-1H-indole-6-carbonitrile] are “potent agonists” and “potent activity”.
`COc1ccc(F)cc1C(C)(C)CC(O)(Cc1[nH]c2ccccc2c1C#N)C(F)(F)F` (centres unmarked) [2-[4-(5-Fluoro-2-methoxyphenyl)-2-hydroxy-4-methyl-2-trifluoromethylpentyl]-1H-indole-3-carbonitrile]: the “activity as agonists” value in the experiment with glucocorticoid receptor was “potent agonists”. Besides, the “activity in the GR binding assay” value in experiment [1] was “potent activity”.
In the same order, the values of `COc1ccc(F)cc1C(C)(C)CC(O)(Cc1cc2cc(C#N)ccc2[nH]1)C(F)(F)F` (centres unmarked) [2-[4-(5-Fluoro-2-methoxyphenyl)-2-hydroxy-4-methyl-2-trifluoromethylpentyl]-1H-indole-5-carbonitrile] are “potent agonists” and “potent activity”.
With `COc1ccc(F)cc1C(C)(C)CC(O)(Cc1cc2c(C)cc(C#N)cc2[nH]1)C(F)(F)F` (centres unmarked) [2-[4-(5-Fluoro-2-methoxyphenyl)-2-hydroxy-4-methyl-2-trifluoromethylpentyl]-4-methyl-1H-indole-6-carbonitrile], in the experiment with glucocorticoid receptor, the “activity as agonists” value is reported as “potent agonists”. Besides, the “activity in the GR binding assay” value in experiment [1] is “potent activity”.
In the same order, the values of `Cc1ccc(F)cc1C(C)(C)CC(O)(Cc1cc2cc(C#N)ccc2[nH]1)C(F)(F)F` (centres unmarked) [2-[4-(5-Fluoro-2-methylphenyl)-2-hydroxy-4-methyl-2-trifluoromethylpentyl]-1H-indole-5-carbonitrile] are “potent agonists” and “potent activity”.
For the compound `Cc1ccc(F)cc1C(C)(C)CC(O)(Cc1cc2c(C)cc(C#N)cc2[nH]1)C(F)(F)F` (centres unmarked) [2-[4-(5-Fluoro-2-methylphenyl)-2-hydroxy-4-methyl-2-trifluoromethylpentyl]-4-methyl-1H-indole-6-carbonitrile], the “activity as agonists” value with glucocorticoid receptor is listed as “potent agonists”. For the same compound, in experiment [1], the “activity in the GR binding assay” value is reported as “potent activity”.
Take `CC(C)(CC(O)(Cc1cc2ccncc2[nH]1)C(F)(F)F)c1cccc2c1OCC2` (centres unmarked) [4-(2,3-Dihydrobenzofuran-7-yl)-1,1,1-trifluoro-4-methyl-2-(1H-pyrrolo[2,3-c]pyridin-2-ylmethyl)pentan-2-ol]: in the experiment with glucocorticoid receptor, the “activity as agonists” value is on record as “potent agonists”. In addition, in experiment [1], the “activity in the GR binding assay” value was “potent activity”.
With `CC(C)(CC(O)(Cc1cc2cnccc2[nH]1)C(F)(F)F)c1cccc2c1OCC2` (centres unmarked) [4-(2,3-Dihydrobenzofuran-7-yl)-1,1,1-trifluoro-4-methyl-2-(1H-pyrrolo[3,2-c]pyridin-2-ylmethyl)pentan-2-ol], in the experiment with glucocorticoid receptor, the “activity as agonists” value is reported as “potent agonists”. Also, the “activity in the GR binding assay” value in experiment [1] was “potent activity”.
